Reference: US20020115122A1, “Method and apparatus for automated assessment of the immunoregulatory status of the mononuclear leukocyte immune system” (priority 1998, published 2002)

Assays:
[1] = test system: peripheral blood mononuclear cells from normal donors; assay: Antigenic determinant and IL-2 receptor expression on PHA stimulated mononuclear cells (flow cytofluorometry); format: cell-based, human; settings: for IL2R+ percentage positive / Leu 2a+ percentage positive / Leu 3a+ percentage positive / Leu 4+ percentage positive: N = 9, ± standard error; for ratio of Activated Leu-3a+: Activated Leu-2a+ cells: at 18 hours in culture with PHA
Protocol: The sample of isolated cells is cultured with a standard stimulus for a period of time sufficient to allow a measurable amount of activation antigen expression, as influenced by mononuclear cell subclass interaction, to develop. In this particular embodiment, the isolated cells at a concentration of 1 million cells per milliliter are cultured with PHA at a concentration of 37.5 micrograms per milliliter, serving as a standard stimulus, for 18 hours. RPMI 1640 with fetal calf serum and glutamine serve as a culture media. The culture time is determined for each particular standard stimulus using samples from normal subjects, culturing portions of each sample for different lengths of time and determining the amount of activation antigen expression for each culture time. A measurable amount of IL-2 receptor expression is observed about 18 hours after initiating the culture with PHA. The 18 hour culture period facilitates the use of this invention as a clinical assay.
After culturing, the cells are washed to remove the standard stimulus and then aliquots of cells are simultaneously incubated with two monoclonal antibodies, each directly conjugated to different fluorometrically distinguishable fluorophores. The first fluorophore-conjugated monoclonal antibody binds to a select mononuclear cell subclass antigenic determinant and the second fluorometrically distinguishable fluorophore-conjugated monoclonal antibody binds to a select cell surface activation antigen. After incubation, the cells are washed to remove excess antibody and, in this particular embodiment, fixed with 1% paraformaldehyde to halt any further cellular activity.
This analysis is correlated with the stimulation index as measured by a 72 hour PHA culture with tritiated thymidine uptake. Peripheral blood mononuclear cells from normal donors were isolated by density gradient centrifugation, cultured with PHA, incubated with monoclonal antibodies to select mononuclear cell subclass antigenic determinants and to IL-2 receptors and four parameter data generated and analyzed similar as described in “Detailed Description”. Monoclonal antibodies used included FITC-conjugated antibody for the antigenic determinants Leu-4, Leu-3a or Leu-2a, and PE-conjugated monoclonal antibody for IL-2 receptor. Four parameter data was collected on cells using an EPICS-V flow cytofluorometer (Coulter Corporation, Hialeah, Fla.) configured as described in “Detailed Description” with the following modification: the argon laser was used at 500 milliwatts. Forward and orthogonal light scatter parameters were analyzed to determine if the cell was within an area of interest which substantially included lymphocytes, lymphoblasts and monocytes. Green and red fluorescence data analysis was performed for such cells. The percentage of antigenic determinant and/or IL-2 receptor positive mononuclear cells, i.e., Leu-4+, Leu-3a+, Leu-2a+, IL2R+, leu-4+IL2R+, Leu-3a+IL2R+and Leu-2a+IL2R+, was determined as per the methods described herein. The results were not corrected for non-specific binding.
First, mononuclear cell subclass antigenic determinant and activation antigen analysis of PHA stimulated mononuclear cells was conducted using aliquots incubated with only one monoclonal antibody.
Analysis of the PEA stimulated mononuclear cells was conducted using aliquots incubated with a FITC-conjugated monoclonal antibody to detect antigenic determinants and anti-IL2R-PE.

[2] = test system: peripheral blood mononuclear cells from normal donors; assay: Stimulation index by tritiated thymidine uptake in PHA culture; format: cell-based, human; settings: 72 hours in culture with PHA
Protocol: This analysis is correlated with the stimulation index as measured by a 72 hour PHA culture with tritiated thymidine uptake. Peripheral blood mononuclear cells from normal donors were isolated by density gradient centrifugation, cultured with PHA, incubated with monoclonal antibodies to select mononuclear cell subclass antigenic determinants and to IL-2 receptors and four parameter data generated and analyzed similar as described in “Detailed Description”. Monoclonal antibodies used included FITC-conjugated antibody for the antigenic determinants Leu-4, Leu-3a or Leu-2a, and PE-conjugated monoclonal antibody for IL-2 receptor. Four parameter data was collected on cells using an EPICS-V flow cytofluorometer (Coulter Corporation, Hialeah, Fla.) configured as described in “Detailed Description” with the following modification: the argon laser was used at 500 milliwatts. Forward and orthogonal light scatter parameters were analyzed to determine if the cell was within an area of interest which substantially included lymphocytes, lymphoblasts and monocytes. Green and red fluorescence data analysis was performed for such cells. The percentage of antigenic determinant and/or IL-2 receptor positive mononuclear cells, i.e., Leu-4+, Leu-3a+, Leu-2a+, IL2R+, leu-4+IL2R+, Leu-3a+IL2R+and Leu-2a+IL2R+, was determined as per the methods described herein. […]

[3] = 18 hours in culture with PHA, normal donors
[4] = 24 hours in culture with PHA, normal donors
[5] = 48 hours in culture with PHA, normal donors
[6] = Subject D, 18 hours in culture with PHA
[7] = Subject D, 24 hours in culture with PHA
[8] = Subject D, 48 hours in culture with PHA
[9] = Subject N, 18 hours in culture with PHA
[10] = Subject N, 48 hours in culture with PHA

**Q.** For phytohemagglutinin [PHA], which “IL2R+ percentage positive” value ([1]; 18 hours in culture with PHA) is on record?
**A.** 61 ± 1.9 percentage

**Q.** And the “Leu 2a+ percentage positive” value ([1]; 18 hours in culture with PHA)?
**A.** 18 ± 1.0 percentage

**Q.** And the “Leu 3a+ percentage positive” value ([1]; 18 hours in culture with PHA)?
**A.** 54 ± 1.7 percentage

**Q.** And the “Leu 4+ percentage positive” value ([1]; 18 hours in culture with PHA)?
**A.** 79 ± 2.4 percentage

**Q.** What about the “Activated Leu-2a+” value [1, 3] of the same substance?
**A.** 25 ± 6.4 Percentage

**Q.** And the “Activated Leu-3a+” value [1, 3]?
**A.** 49 ± 8.9 Percentage

**Q.** What about the “Activated Leu-4+” value [1, 3] of the same substance?
**A.** 49 ± 6.1 Percentage

**Q.** And the “IL2R+ percentage positive” value ([1]; 24 hours in culture with PHA)?
**A.** 71 ± 1.9 percentage

**Q.** And the “Leu 2a+ percentage positive” value ([1]; 24 hours in culture with PHA)?
**A.** 18 ± 0.7 percentage

**Q.** What about the “Leu 3a+ percentage positive” value ([1]; 24 hours in culture with PHA) of the same substance?
**A.** 54 ± 1.3 percentage

**Q.** What about the “Leu 4+ percentage positive” value ([1]; 24 hours in culture with PHA) of the same substance?
**A.** 77 ± 1.9 percentage

**Q.** And the “Activated Leu-2a+” value [1, 4]?
**A.** 32 ± 4.5 Percentage

**Q.** And the “Activated Leu-3a+” value [1, 4]?
**A.** 62 ± 8.5 Percentage

**Q.** What about the “Activated Leu-4+” value [1, 4] of the same substance?
**A.** 62 ± 3.7 Percentage

**Q.** What about the “IL2R+ percentage positive” value ([1]; 48 hours in culture with PHA) of the same substance?
**A.** 80 ± 1.5 percentage

**Q.** And the “Leu 2a+ percentage positive” value ([1]; 48 hours in culture with PHA)?
**A.** 19 ± 2.0 percentage

**Q.** What about the “Leu 3a+ percentage positive” value ([1]; 48 hours in culture with PHA) of the same substance?
**A.** 53 ± 2.8 percentage

**Q.** And the “Leu 4+ percentage positive” value ([1]; 48 hours in culture with PHA)?
**A.** 81 ± 2.2 percentage

**Q.** And the “Activated Leu-2a+” value [1, 5]?
**A.** 55 ± 8.0 Percentage

**Q.** And the “Activated Leu-3a+” value [1, 5]?
**A.** 70 ± 9.5 Percentage

**Q.** And the “Activated Leu-4+” value [1, 5]?
**A.** 72 ± 5.5 Percentage

**Q.** What about the “time after initiating the culture at which a measurable amount of IL-2 receptor expression is observed” value ([1]; PHA 37.5 micrograms per milliliter, 1 million cells per milliliter) of the same substance?
**A.** about 18 hours

**Q.** And the “Activated Leu-2a+” value [1, 6]?
**A.** 32 Percentage

**Q.** And the “Activated Leu-3a+” value [1, 6]?
**A.** 74 Percentage

**Q.** What about the “Activated Leu-4+” value [1, 6] of the same substance?
**A.** 68 Percentage

**Q.** And the “Activated Leu-2a+” value [1, 7]?
**A.** 32 Percentage

**Q.** And the “Activated Leu-3a+” value [1, 7]?
**A.** 79 Percentage

**Q.** And the “Activated Leu-4+” value [1, 7]?
**A.** 75 Percentage

**Q.** What about the “Activated Leu-2a+” value [1, 8] of the same substance?
**A.** 76 Percentage

**Q.** What about the “Activated Leu-3a+” value [1, 8] of the same substance?
**A.** 92 Percentage

**Q.** What about the “Activated Leu-4+” value [1, 8] of the same substance?
**A.** 84 Percentage

**Q.** And the “ratio of Activated Leu-3a+: Activated Leu-2a+ cells” value (“ratio of Activated Leu-3a+” for short) ([1]; Subject D)?
**A.** 2.31

**Q.** And the “Activated Leu-2a+” value [1, 9]?
**A.** 30 Percentage

**Q.** What about the “Activated Leu-3a+” value [1, 9] of the same substance?
**A.** 31 Percentage

**Q.** And the “Activated Leu-4+” value [1, 9]?
**A.** 32 Percentage

**Q.** What about the “Activated Leu-4+” value ([1]; Subject N, 24 hours in culture with PHA) of the same substance?
**A.** 59 Percentage

**Q.** What about the “Activated Leu-2a+” value [1, 10] of the same substance?
**A.** 71 Percentage

**Q.** And the “Activated Leu-3a+” value [1, 10]?
**A.** 44 Percentage

**Q.** What about the “ratio of Activated Leu-3a+” value ([1]; Subject N) of the same substance?
**A.** 1.03

**Q.** What about the “ratio of Activated Leu-3a+” value ([1]; Subject N, listed as PRA) of the same substance?
**A.** approximately 1.0

**Q.** What about the “subclass preference of activation” value ([1]; mononuclear cells which are Leu-3a+ versus Leu-2a+) of the same substance?
**A.** preferentially activates helper/inducer T-cells

**Q.** What about the “SI at 72” value ([2]; Subject D) of the same substance?
**A.** 535

**Q.** What about the “SI at 72” value ([2]; Subject N) of the same substance?
**A.** 8
